Experimental data reported in patent US20070037752A1, “Novel alanyl-amino peptidase inhibitors for functionally influencing different cells and treating immunological, inflammatory, neuronal, and other diseases” (priority 2003, published 2007).

Molecular target: alanyl aminopeptidases (APN) (Homo sapiens, UniProt P15144)
Assay: Inhibition of alanyl aminopeptidase enzymatic activity, fluorogenic substrate (Ala)2-rhodamine 110
Assay type: biochemical
Details: Table 6; read-out: IC50APN
Experimental: The inhibition characteristics measured are referred to as IC-50 values or ID50 values (the latter marked with “*”) for said enzyme. The enzymatic activity was determined by means of the fluorogenic substrate/product (Ala)2-rhodamine 110.

Chain of alanyl aminopeptidases (APN) (P15144 whole entry, species assumed): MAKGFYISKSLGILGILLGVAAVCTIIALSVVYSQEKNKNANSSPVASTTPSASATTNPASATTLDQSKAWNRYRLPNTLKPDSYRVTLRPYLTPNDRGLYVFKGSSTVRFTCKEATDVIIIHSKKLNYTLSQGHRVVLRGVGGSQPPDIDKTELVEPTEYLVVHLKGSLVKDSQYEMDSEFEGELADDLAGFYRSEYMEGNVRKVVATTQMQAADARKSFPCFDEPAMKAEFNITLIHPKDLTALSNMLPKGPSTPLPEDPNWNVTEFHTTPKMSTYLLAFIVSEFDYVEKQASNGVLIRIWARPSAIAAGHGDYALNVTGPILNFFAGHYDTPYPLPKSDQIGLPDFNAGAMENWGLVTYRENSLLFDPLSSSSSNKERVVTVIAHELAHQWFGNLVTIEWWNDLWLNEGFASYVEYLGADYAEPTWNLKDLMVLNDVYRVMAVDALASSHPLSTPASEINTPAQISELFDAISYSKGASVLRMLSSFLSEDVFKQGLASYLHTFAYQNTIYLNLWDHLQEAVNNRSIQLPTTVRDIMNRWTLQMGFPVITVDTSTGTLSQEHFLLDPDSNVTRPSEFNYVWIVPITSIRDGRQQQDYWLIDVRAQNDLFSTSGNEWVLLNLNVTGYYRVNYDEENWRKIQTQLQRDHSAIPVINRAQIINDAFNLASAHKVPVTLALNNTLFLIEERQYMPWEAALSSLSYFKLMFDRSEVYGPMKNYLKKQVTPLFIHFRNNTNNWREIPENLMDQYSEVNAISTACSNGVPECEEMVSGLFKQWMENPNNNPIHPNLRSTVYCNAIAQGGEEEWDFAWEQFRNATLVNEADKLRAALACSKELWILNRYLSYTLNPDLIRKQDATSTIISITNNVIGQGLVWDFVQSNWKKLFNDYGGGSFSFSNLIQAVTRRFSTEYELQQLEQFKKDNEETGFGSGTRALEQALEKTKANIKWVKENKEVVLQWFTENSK

IC50 | SMILES
8.4 µM | CC1CCCN(S(=O)(=O)c2ccc(NC(=O)/C=C/c3ccco3)cc2)C1 (centres unmarked) [A6.002]
11.5 µM | O=C(CS(=O)(=O)c1ccc(Cl)cc1)NO [A6.003]
11.8 µM | NNC(=O)c1ccc(NS(=O)(=O)c2cccs2)cc1 [A6.004]
11.8 µM | Cc1ccc(S(=O)(=O)CNC(=S)c2ccc3ccccc3c2)cc1 [A6.005]
13.4 µM | N/C(=N/OS(=O)(=O)c1ccc(C(F)(F)F)cc1)C1CSCCS1 (centres unmarked) [A6.006]
16.3 µM | O=[N+](O)CC(c1ccccc1)P(=O)(c1ccccc1)c1ccccc1 (centres unmarked) [A6.007]
16.4 µM | Cc1ccc(S(=O)(=O)N(Cc2ccc(Cl)cc2)c2ccccc2C(=O)N/N=C/c2ccco2)cc1 [A6.008]
19.2 µM | Cc1ccccc1S(=O)(=O)Nc1cccc(C(=O)N/N=C/c2ccco2)c1 [A6.009]
22.3 µM | CCOC(=O)c1c(C)oc2c1c1c(c3ccccc32)OCN(C2CCS(=O)(=O)C2)C1 (centres unmarked) [A6.010]
18 µM | Cc1ccc(S(=O)(=O)CNC(=S)c2ccc(Cl)c(Cl)c2)cc1 [A6.011]
21.6 µM | O=C(Nc1ccc(N=Nc2ccccc2)cc1)c1ccc(S(=O)(=O)N2CCCC2)cc1 [A6.012]
24.8 µM | Cc1ccc(/C=C/C(=O)Nc2ccc(S(=O)(=O)N3CCCC3)cc2)o1 [A6.013]
37.2 µM | CC1CCN(S(=O)(=O)c2ccc3c(c2)C(Cl)(Cl)C(=O)N3)CC1 [A6.015]
55.6 µM | O=C(CNS(=O)(=O)c1ccc2c(c1)OCCO2)N/N=C/c1ccco1 [A6.016]
69.3 µM | Cc1ccc(S(=O)(=O)N2CCC(C(=O)N/N=C/c3ccco3)CC2)cc1 [A6.017]

Same assay, conditions: Table 7; read-out: IC50APN

IC50 | SMILES
6 µM | CN/C=C1\C=C(c2ccccc2)OC1=S [A7.001]
6.7 µM | CCc1cccc(CC)c1NC(=S)N/N=C1\C(=O)N(CN2CC(C)CC(C)C2)c2ccccc21 (centres unmarked) [A7.002]
11.8 µM | Cc1ccc(S(=O)(=O)CNC(=S)c2ccc3ccccc3c2)cc1 [A7.004]
12 µM | O=C(O)CSCC1NC(=S)N(c2ccccc2)C1=O (centres unmarked) [A7.005]
12.4 µM | O=C1C(Cc2c[nH]c3ccccc23)NC(=S)N1c1ccccc1 (centres unmarked) [A7.006]
12.9 µM | Cc1cccc(C)c1NC(=S)NC(=O)c1cccs1 [A7.007]
14.1 µM | CSCCC1NC(=S)N(Cc2ccccc2)C1=O (centres unmarked) [A7.008]
18 µM | Cc1ccc(S(=O)(=O)CNC(=S)c2ccc(Cl)c(Cl)c2)cc1 [A7.010]
21.3 µM | O=C1C(Cc2ccc(O)cc2)NC(=S)N1C1CCCCC1 (centres unmarked) [A7.011]
36.9 µM | O=C1C(Cc2ccc3[nH]ccc3c2)NC(=S)N1c1ccccc1 (centres unmarked) [A7.012]

Same assay, conditions: Table 8, starred values = ID50; read-out: ID50 APN (values marked with *)

SMILES | IC50
CCOC(=O)c1ncn(C(=O)OC)c1N [A8.001] | 0.9 µM
Cc1cccc[n+]1OC(=O)N1CCCCC1 [A8.038] | 96.7 µM

Results, then the compound that gave them:

IC50 | SMILES
48.1 µM | O=C(O)CC1S/C(=N/N=C/c2ccco2)NC1=O (centres unmarked) [A8.031]
53.2 µM | Cc1ccc(Cn2c(SCCC(=O)O)nc3c2c(=O)[nH]c(=O)n3C)cc1 [A8.033]
79.8 µM | Cn1c(=O)c2c(ncn2CC(=O)N/N=C/C=C\c2ccco2)n(C)c1=O [A8.037]
154 µM | CCCC1NC(=S)N(c2ccccc2)C1=O (centres unmarked) [A8.040]
231 µM | COc1ccc(C2C(C(=O)c3ccccc3)C(c3ccccc3)C(C(=O)NCc3ccc(F)cc3)N2C(=O)NC2CCCCC2)cc1 (centres unmarked) [A8.041]

Same assay, conditions: Table 8, unstarred values; read-out: IC50APN

SMILES | IC50
C/C(Cn1nnc([N+](=O)[O-])n1)=N/NC(=O)COc1ccccc1[N+](=O)[O-] [A8.002] | 3.4 µM
COC(=O)C1=C(C(=O)OC)C(c2cc(Br)ccc2O)c2sc(O)nc2S1 (centres unmarked) [A8.003] | 4.7 µM
CCc1cccc(CC)c1NC(=S)N/N=C1\C(=O)N(CN2CC(C)CC(C)C2)c2ccccc21 (centres unmarked) [A8.004] | 6.7 µM
CCOC(=O)N1CCc2c(sc(NC(=O)c3ccc(F)cc3)c2C(=O)Nc2ccc(Br)cc2)C1 [A8.005] | 7.3 µM
CC1SC(N/N=C/c2ccco2)=NC1=O (centres unmarked) [A8.006] | 8 µM
CC(C)CC1CC(=S)C(C2CCCCC2)C1=O (centres unmarked) [A8.007] | 8 µM
COc1cc(C)[n+](OC(=O)N(C)C)c(C)c1 [A8.030] | 42.4 µM

Further lines, results first:

IC50 | SMILES
10.8 µM | CC(C)(C)OC(=O)N/N=C\C=C\c1ccco1 [A8.008]
12.4 µM | O=C1C(Cc2c[nH]c3ccccc23)NC(=S)N1c1ccccc1 (centres unmarked) [A8.009]
12.9 µM | Cc1cccc(C)c1NC(=S)NC(=O)c1cccs1 [A8.010]
13.5 µM | COC(=O)N/N=C(C)\C=C\c1ccco1 [A8.011]
14.1 µM | CSCCC1NC(=S)N(Cc2ccccc2)C1=O (centres unmarked) [A8.012]
14.3 µM | Cn1c(=O)c2c(nc3sccn32)n(C)c1=O [A8.013]
14.4 µM | CN(/N=C/c1sc(=O)[nH]c1Cl)c1ccccc1 [A8.014]
14.9 µM | Cc1cccc(C)c1Nc1c(-c2ccccc2NC(=O)Nc2ccccc2)nc2c(C(=O)NCc3ccc(F)cc3)cccn12 [A8.015]
14.9 µM | O=C1C(Cc2ccc3[nH]ccc3c2)NC(=S)N1c1ccccc1 (centres unmarked) [A8.016]
15.6 µM | CCOC(=O)CCCCC(=O)c1c(C)n(C(=O)c2ccc(N3C(=O)CCC3=O)cc2)c(=O)n1C(=O)c1ccc(N2C(=O)CCC2=O)cc1 [A8.017]
18.2 µM | Cc1cc(=O)[nH]c(N/N=C/c2ccco2)n1 [A8.018]
21.3 µM | O=C1C(Cc2ccc(O)cc2)NC(=S)N1C1CCCCC1 (centres unmarked) [A8.019]
26.1 µM | O=C1C(Cc2ccccc2)NC(=S)N1c1ccccc1 (centres unmarked) [A8.020]
25 µM | Cn1nc(-c2cccs2)nc2c(=O)n(C)c(=O)nc1-2 [A8.021]
26.4 µM | Cc1ccc(/C=N/NC2=NC(=O)CS2)o1 [A8.022]
22.6 µM | Cn1c(=O)[nH]c2nnc(-c3cccs3)nc2c1=O [A8.023]
28 µM | Cc1ccc(Cn2c(SCCC(=O)O)nc3c2c(=O)n(C)c(=O)n3C)cc1 [A8.025]
28.6 µM | C/C(=N\N=C1\SC(CC(=O)O)C(=O)N1c1ccccc1)c1ccco1 (centres unmarked) [A8.026]
31.4 µM | Cc1cccc(C)c1Nc1c(-c2ccccc2NC(=O)Nc2ccc(OC(F)(F)F)cc2)nc2c(C(=O)NCC(C)C)cccn12 [A8.027]
36.9 µM | O=C1C(Cc2ccc3[nH]ccc3c2)NC(=S)N1c1ccccc1 (centres unmarked) [A8.029]
50 µM | NC(=S)N/N=C/c1ccco1 [A8.032]
59.8 µM | CC1=NC(N)=NC(C)(C)N1c1c(Cl)cccc1Cl [A8.034]
66.6 µM | O=C1C(Cc2ccc(O)cc2)NC(=S)N1c1ccccc1 (centres unmarked) [A8.035]
68 µM | CC(=O)C1C(c2ccc(N(C)C)cc2)C2C(=O)N(C3CCCCC3)C(=O)N2C1c1sccc1C (centres unmarked) [A8.036]

Same assay, conditions: Table 9, starred values = ID50; read-out: ID50 APN (values marked with *)

IC50 | SMILES
1.2 µM | CC1=C(C#N)C(=O)N(CCO)C(=O)/C1=C\c1ccc(-c2cc(Cl)ccc2Cl)o1 [A9.002]
2 µM | O=C1c2ccccc2-c2c1[n+]([O-])c1c([n+]2[O-])CCCC1 [A9.003]
2.7 µM | CCOC(=O)c1ccc(-c2ccc(/C=C3\C(=O)N(CCO)C(=O)C(C#N)=C3C)o2)cc1 [A9.005]

Same assay, conditions: Table 9, unstarred values

IC50APN | SMILES
‘very high ac- tive’, beyond measure | COC(=O)C1=C(N)N2C(=O)CSC2=C(C(=O)OC)C1 [A9.001]

Same assay, conditions: Table 9, unstarred values; read-out: IC50APN

IC50 | SMILES
4.7 µM | COC(=O)C1=C(C(=O)OC)C(c2cc(Br)ccc2O)c2sc(O)nc2S1 (centres unmarked) [A9.006]
4.8 µM | COc1ccc(/C=N/NC(=O)C2=C(C)Nc3ccccc3S2)cc1Cn1nc(C)c(Br)c1C [A9.007]
5 µM | COC(=O)c1ccc(-c2ccc(/C=C3\C(=O)N(CCCO)C(=O)C(C#N)=C3C)o2)cc1 [A9.008]
6.2 µM | CC1CCN(C(=O)/C(=C\c2ccco2)NC(=O)c2ccc(Cl)cc2)CC1 [A9.009]
